Experimental findings from ChEMBL document CHEMBL5727558, “Organic compounds” (2020) are described below.

The target of experiment [1] is Dual specificity calcium/calmodulin-dependent 3',5'-cyclic nucleotide phosphodiesterase 1B (Homo sapiens, UniProt Q01064). Put plainly: (§1) Enzyme Assay: Assay: The following phosphodiesterase enzymes may be used: 3′,5′-cyclic-nucleotide-specific bovine brain phosphodiesterase (Sigma, St. Louis, Mo.) (predominantly PDE1B) and recombinant full length human PDE1A and PDE1B (r-hPDE1A and r-hPDE1B respectively) which may be produced e.g., in HEK or SF9 cells by one skilled in the art. The PDE1 enzyme is reconstituted with 50% glycerol to 2.5 U/ml. One unit of enzyme will hydrolyze 1.0 μmole of 3′,5′-cAMP to 5′-AMP per min at pH 7.5 at 30° C. One part enzyme is added to 1999 parts reaction buffer (30 μM CaCl2, 10 U/ml of calmodulin (Sigma P2277), 10 mM Tris-HCl pH 7.2, 10 mM MgCl2, 0.1% BSA, 0.05% NaN3) to yield a final concentration of 1.25 mU/ml. 99 μl of diluted enzyme solution is added into each well in a flat bottom 96-well polystyrene plate to which 1 μl of test compound dissolved in 100% DMSO is added. The compounds are mixed and pre-incubated with the enzyme for 10 min at room temperature.
Dual specificity calcium/calmodulin-dependent 3',5'-cyclic nucleotide phosphodiesterase 1B, sequence (Q01064 whole entry): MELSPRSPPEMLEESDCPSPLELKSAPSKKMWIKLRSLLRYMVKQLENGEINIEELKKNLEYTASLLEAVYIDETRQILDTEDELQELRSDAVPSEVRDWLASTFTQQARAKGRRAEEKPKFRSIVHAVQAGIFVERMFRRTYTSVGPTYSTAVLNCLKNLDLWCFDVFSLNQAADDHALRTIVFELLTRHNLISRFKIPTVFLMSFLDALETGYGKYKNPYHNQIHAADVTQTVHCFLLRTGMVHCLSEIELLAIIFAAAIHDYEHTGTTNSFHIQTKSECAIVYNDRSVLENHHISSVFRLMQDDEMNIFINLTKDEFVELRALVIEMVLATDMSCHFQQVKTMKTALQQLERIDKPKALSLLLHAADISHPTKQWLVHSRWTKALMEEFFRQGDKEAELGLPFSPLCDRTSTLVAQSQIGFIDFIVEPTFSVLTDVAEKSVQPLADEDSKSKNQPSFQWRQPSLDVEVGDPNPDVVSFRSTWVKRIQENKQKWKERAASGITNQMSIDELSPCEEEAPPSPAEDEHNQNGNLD

Experiment [2] has as its target Dual specificity calcium/calmodulin-dependent 3',5'-cyclic nucleotide phosphodiesterase 1A (Homo sapiens, UniProt P54750). The description is as §1.

SMILES strings stand for the structures.

Dual specificity calcium/calmodulin-dependent 3',5'-cyclic nucleotide phosphodiesterase 1A, sequence (P54750 whole entry): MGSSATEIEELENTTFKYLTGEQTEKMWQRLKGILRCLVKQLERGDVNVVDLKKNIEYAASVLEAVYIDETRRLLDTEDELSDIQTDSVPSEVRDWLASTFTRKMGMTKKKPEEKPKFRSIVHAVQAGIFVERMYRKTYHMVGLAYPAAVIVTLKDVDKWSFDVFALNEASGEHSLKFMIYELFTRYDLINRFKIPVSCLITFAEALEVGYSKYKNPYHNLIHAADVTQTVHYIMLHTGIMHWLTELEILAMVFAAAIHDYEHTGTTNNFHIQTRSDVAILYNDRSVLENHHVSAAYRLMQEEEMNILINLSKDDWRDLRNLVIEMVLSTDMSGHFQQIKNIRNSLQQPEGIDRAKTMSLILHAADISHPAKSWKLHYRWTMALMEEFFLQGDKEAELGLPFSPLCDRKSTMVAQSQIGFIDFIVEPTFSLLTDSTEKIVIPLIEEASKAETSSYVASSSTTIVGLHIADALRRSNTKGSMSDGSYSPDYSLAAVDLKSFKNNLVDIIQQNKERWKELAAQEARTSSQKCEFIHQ

Take `CC(C)Sc1c2c(nn1Cc1ccc(-c3cccc(F)n3)cc1)N1CC(C)(C)N=C1N(C)C2=O`: the IC50 in experiment [1] is 3 µM; in experiment [2], 0.005 µM.
